We go through two compounds from patent US20190002492A1, “DERIVATIVES OF ALLOPR[…] OF EPIALLOPR[…] USES THEREOF FOR TREATING A NEUROPATHOLOGICAL CONDITION” (UNIVERSITE DE STRASBOURG, priority 2011, published 2019).

“Also recorded” adds a separate entry of the source.

The test system of test [1] is human neuroblastoma cells. The test can be described thus: Whole-cell patch-clamp without GABA in the recording pipette (non-GABAergic effects). To be noted: GABA not added in the recording pipette. The test is classed as cell-based. An excerpt:
The present Invention relates to derivatives of allopregnanolone or of epipregnanolone that primarily and clearly create a cellular effect that is completely independent of the GABAa receptors. In fact, electrophysiological experiments conducted on human neuroblastoma cells using a Patch-Clamp technique, in a Patch-Clamp whole cell configuration, made it possible to see that when the GABA is not in the pipette, i.e., not introduced, or when the GABAa receptors are not activated, said derivatives were capable of inducing a specific cellular activity.
These experiments were carried out under the same recording conditions as the electrophysiological studies described above (A5), with the exception of the GABA, which was not added into the recording pipette.

Test [2] has as its system type A GABA channel receptors (GABAa-R). Nature of the test: Whole-cell patch-clamp, effect on GABA-induced ionic current. It is filed as cell-based, human. To be noted: 0.25 μM compound, GABA 10 μM in the recording pipette, whole cell patch-clamp. Here is the method:
The studies were conducted using an electrophysiological approach. The activity of the cells was recorded using the patch-clamp technique in its so-called whole cell configuration. The mediums used for the recordings have the following composition (in mM): NaCl ([…]), KCl (2), CaCl2 (1), MgCl2 (2), HEPES (10) for the medium bathing the cells and NaCl (132), KCl (2), CaCl2 (1), MgCl2 (2), TEA (15), HEPES (10) for the recording pipette, the pH was adjusted in both cases to 7.4 with NaOH. The GABA 10 μM was added into the recording pipette.
After producing a “gigaseal” (Planar patch clamp) between the cellular membrane and the tip of a pipette with an electrical resistance comprised between 4 and 7 MO, the ionic currents were measured using a patch-clamp amplifier (Axopatch B200, Axon Instruments, CA). The acquisition of the signal (acquisition frequency of 10 kHz) was done using an interface card (Digidata 1322A, Axon Instruments, CA) and the pClamp 8 software (Axons Instruments, CA).
The allopregnanolone and the BR053, BR338, BR297 and BR351 derivatives were solubilized in pure ethanol before being diluted in the medium to the desired concentration. The dilution factor was at least equal to 2×10^4, which makes the final concentration of ethanol in the recording solution remain below […] (a concentration not affecting the activity of the GABAa receptor).
Depending on the experiments, the allopregnanolone or the BR053, BR338, BR297 or BR351 derivatives, at the concentration of 0.25 μM, were either added in the recording pipette at the same time as the GABA, or applied to the cell by perfusion.
The application was done by gravity through a multi-path perfusion system made up of glass tubes each having an inner diameter of 1 mm. The selected path was placed across from the recorded cell at approximately 100 μm. The solution was changed by calibrated rotation of the tubes using a stepping motor thus placing the new selected path across from the cell. Synchronously with that rotation, the solenoid valve controlling the flow of the selected path was also opened and the preceding one closed.
For orientation: The patch-clamp technique gives a direct electrical read-out from membranes.

Test [3] relates to Sprague-Dawley rats. The test can be described thus: Acetone test of thermal allodynia to cold, painful neuropathy caused by vincristine. The test is classed as in vivo, rat. To be noted: rats with vincristine neuropathy, 4 mg/kg i.p. every 2 days for 2 weeks. From the text:
Adult male Sprague-Dawley rats weighing between 250 and 300 g were used. They came from the company Janvier (le Genest St. Isle, France). The care and handling of the animals were done in accordance with the guidelines from the Council of the European Community (86/609/EC) and in accordance with the ethical rules of the International Association for the Study of Pain. The protocol used to carry out the in vivo studies was subject to examination and authorization granted to Prof. Mensah-Nyagan's team by the Alsatian Department of the Veterinary Public Health Guide for the Care and Use of Laboratory Animals (Approval number 67-186). The rats were housed under standard conditions with a photoperiod of 12 h day/12 h night, with unlimited food and water. The animals spent one acclimatization week before being integrated into the experimental protocols. Each animal was examined daily to detect any signs of deterioration of its health condition, such as dramatic weight loss, a decrease in appetite during chemotherapy and pharmacological treatment.
Vincristine sulfate (VINC), purchased from Sigma-Aldrich (St. Louis, Mo., USA), was dissolved in a physiological saline solution (NaCl 0.9%) at 0.1 mg/ml and stored at 4° C. The saline solution (NaCl 0.9%) is used as excipient. The VINC is injected daily by intraperitoneal injection (i.p.), in 2 cycles of 5 days separated by 2 days off, at a concentration of 0.1 mg/kg/day. The control animals were injected by i.p. (1 ml/kg) with the excipient using a similar protocol.
The allopregnanolone in the derivatives according to the invention (BR053 and BR297) were diluted in a hydroxypropylcellulose (HPC) solution (0.3%) used as excipient. The curative treatment with allopregnanolone, BR053 or BR297 began 3 days after the vincristine cycles. Each of these compounds (allopregnanolone, BR053 or BR297) was administered by the intraperitoneal route at a dose of 4 mg/kg at a rate of one injection every 2 days. Thus, over the total duration of the in vivo experiments (14 days), each animal received 7 injections of excipient, allopregnanolone, BR053 or BR297, based on its group, at a dose of 4 mg/kg. The animals were sacrificed 24 hours after the last behavioral test (28th day) to remove tissues that will be used for later histology and electrophysiology studies.
The thermal nociceptive sensitivity threshold to cold was measured in rats placed in individual Plexiglas boxes (30×30×25 cm) mounted on a raised mesh support so as to allow access to the sole of the animal's foot. […] Six measurements (3 per foot) were performed with a latency of 5 minutes between each stimulation. The average latency for withdrawal of the feet (in seconds) was calculated by averaging 6 measurements at each studied point in time. […]

As for `C=CCO[C@H]1CC[C@]2(C)C3CC[C@@]4(C)C(CC[C@@H]4C(C)=O)C3CC[C@H]2C1` (stereo partly drawn) [BR297], the “Induction of cellular activity without GABA (non-GABAergic effect)” value in test [1] is “capable of inducing cellular activity”. Further, in test [2], the “Effect on the type A GABA receptor channel or GABAa-R” value was “only partially mimics the positive allosteric effect; also recorded: Partial positive allosteric effect”. Moreover, in test [3], the “Effect on thermal allodynia to cold” value is “eliminates the symptoms”.

`CC(=O)[C@H]1CCC2C3CC[C@H]4C[C@@H](O)CC[C@]4(C)C3CC(=O)[C@@]21C` (stereo partly drawn) [BR053]: in test [1], the “Induction of cellular activity without GABA (non-GABAergic effect)” value was “capable of inducing cellular activity”. In addition, the “Effect on the type A GABA receptor channel or GABAa-R” value in test [2] is on record as “negative allosteric action; also recorded: Negative allosteric effect”. Moreover, in test [3], the “Effect on thermal allodynia to cold” value is recorded as “eliminates the symptoms”.
